Reference: article PMC6458850, “CXXC5 mediates growth plate senescence and is a target for enhancement of longitudinal bone growth” (Life Science Alliance, 2019)

Biological target: T1, CXXC5–DVL interaction (Homo sapiens, UniProt O14640)
T1 sequence (O14640 251-340 limits assumed): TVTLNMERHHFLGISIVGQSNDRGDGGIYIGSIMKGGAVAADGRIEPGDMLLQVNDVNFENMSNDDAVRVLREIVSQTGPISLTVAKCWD
Assay: In vitro CXXC5–DVL binding assay (FITC-tagged PTD-DBMP on DVL PDZ domain)
Details: compound 30 μM; fluorescent intensity normalized to DMSO-treated control
Experimental: After the addition of 10 μM FITC-tagged PTD-DBMP to each well, each compound in the chemical library or control (DMSO) was treated to the well at a final concentration of 30 μM. The fluorescence intensity was measured using a Fluorstar Optima microplate reader (BGM Lab Technologies, Ortenberg, Germany). The binding values were calculated as a percent ratio of the fluorescent intensity normalized to the DMSO-treated control.

Q: How did the “CXXC5-DVL interaction (%)” value turn out when `O=C1Nc2ccccc2/C1=C1/Nc2ccccc2/C1=N\O` [Compound 12, indirubin-3′-oxime, reference compound] was run?
A: 7.65%
